In experiment [1] the target is T1, human NPR1 (Homo sapiens, UniProt P16066).
T1 construct: host or cells: CHO-K1
T1 sequence (P16066 33-1061): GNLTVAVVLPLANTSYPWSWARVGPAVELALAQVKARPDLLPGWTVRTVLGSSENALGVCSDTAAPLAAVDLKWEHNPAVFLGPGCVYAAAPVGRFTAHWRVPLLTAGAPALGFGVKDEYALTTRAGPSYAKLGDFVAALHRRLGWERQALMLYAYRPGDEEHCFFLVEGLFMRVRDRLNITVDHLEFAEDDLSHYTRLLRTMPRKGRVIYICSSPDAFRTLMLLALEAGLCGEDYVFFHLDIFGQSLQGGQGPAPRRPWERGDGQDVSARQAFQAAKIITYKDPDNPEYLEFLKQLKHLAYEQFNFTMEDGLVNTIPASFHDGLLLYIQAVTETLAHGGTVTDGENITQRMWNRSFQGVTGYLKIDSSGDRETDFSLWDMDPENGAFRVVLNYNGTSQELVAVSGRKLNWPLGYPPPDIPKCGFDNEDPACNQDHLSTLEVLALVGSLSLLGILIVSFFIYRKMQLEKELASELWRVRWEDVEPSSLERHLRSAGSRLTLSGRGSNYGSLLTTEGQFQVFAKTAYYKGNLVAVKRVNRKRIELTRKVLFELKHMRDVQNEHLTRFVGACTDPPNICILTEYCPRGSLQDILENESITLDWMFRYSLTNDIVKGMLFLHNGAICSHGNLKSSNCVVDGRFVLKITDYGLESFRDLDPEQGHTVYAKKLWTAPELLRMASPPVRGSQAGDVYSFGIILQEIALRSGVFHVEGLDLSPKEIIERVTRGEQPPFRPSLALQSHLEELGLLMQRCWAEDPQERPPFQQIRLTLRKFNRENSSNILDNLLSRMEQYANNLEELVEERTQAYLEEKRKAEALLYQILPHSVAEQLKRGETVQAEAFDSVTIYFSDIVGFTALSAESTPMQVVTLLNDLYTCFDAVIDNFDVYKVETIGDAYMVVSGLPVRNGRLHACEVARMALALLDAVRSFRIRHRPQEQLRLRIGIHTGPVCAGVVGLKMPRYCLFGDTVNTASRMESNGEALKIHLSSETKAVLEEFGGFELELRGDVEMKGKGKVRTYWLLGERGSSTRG
Put plainly: Cellular cGMP production assay, human NPR1 expressing CHO-K1 cells (CisBio HTRF). Type of experiment: cell-based. The settings on record: for AC50: cGMP production, 30 min at 37° C., 12-point dose-response from 30 μM; for Human NPR1 Amax (% of ANP): maximum cGMP production as percentage of the maximum cGMP produced with ANP. The method, boiled down:
(§1)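 Read-out was HTRF (excitation 317 nm, emission 665 nm), with cGMP quantified as Delta F against a calibrator standard curve. Beforehand, cells were exposed for 30 min at 37 °C to compound (30 μM top, twelve 3-fold steps) in IBMX-containing PBS/BSA buffer, then lysed.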
Background: TR-FRET usually uses a lanthanide donor and a delayed reading to cut background.

In experiment [2] the target is monkey NPR1 (Macaca fascicularis, UniProt A0A7N9DBT9). Put plainly: Cellular cGMP production assay, monkey NPR1 expressing CHO-K1 cells (CisBio HTRF). It is filed as cell-based. The settings on record: for Monkey NPR1 Amax (% of ANP): maximum cGMP production as percentage of the maximum cGMP produced with ANP. The method, boiled down:
as §1

The mark [3] stands for this setting: cGMP production, monkey NPR1 CHO-K1 cells, 30 min at 37° C., 12-point dose-response from 30 μM, read-out: Monkey NPR1 AC50.

Where two headings read alike, the source gives them in different places.

Sequence of monkey NPR1 (A0A7N9DBT9 entry or part of it): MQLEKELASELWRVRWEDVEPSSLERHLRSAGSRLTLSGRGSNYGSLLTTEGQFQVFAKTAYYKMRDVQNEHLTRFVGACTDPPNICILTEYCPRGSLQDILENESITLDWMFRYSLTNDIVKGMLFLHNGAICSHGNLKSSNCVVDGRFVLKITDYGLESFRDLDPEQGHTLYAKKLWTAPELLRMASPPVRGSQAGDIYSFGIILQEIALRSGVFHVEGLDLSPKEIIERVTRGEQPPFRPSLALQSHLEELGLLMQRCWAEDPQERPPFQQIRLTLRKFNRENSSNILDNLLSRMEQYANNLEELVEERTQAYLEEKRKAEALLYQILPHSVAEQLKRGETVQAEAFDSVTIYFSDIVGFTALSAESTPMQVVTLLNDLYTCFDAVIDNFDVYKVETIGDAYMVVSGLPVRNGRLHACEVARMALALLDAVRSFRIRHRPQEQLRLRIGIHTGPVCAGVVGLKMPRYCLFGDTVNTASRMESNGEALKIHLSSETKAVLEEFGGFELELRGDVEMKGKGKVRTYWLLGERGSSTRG

As for `CC[C@H]([C@H]1CC[C@H](C(=O)O)CC1)N(C)c1nc2c(c(N[C@@H](CN3C[C@H]4C[C@@H](C3)C4O)c3cnn(C)c3)n1)C[C@H](c1ccccc1)CC2` (stereo partly drawn) [Compound 138, (1R,4r)-4-((1R)-1-(((6R)-4-(((1R)-2-((1R,5S)-6-hydroxy-3-azabicyclo[3.1.1]heptan-3-yl)-1-(1-methyl-1H-pyrazol-4-yl)ethyl)amino)-6-phenyl-5,6,7,8-tetrahydroquinazolin-2-yl)(methyl)amino)propyl)cyclohexane-1-carboxylic acid], in experiment [1], the AC50 was determined as 852 nM and the “Human NPR1 Amax (% of ANP)” value is 105.993 % of ANP. Further, the activity in experiment [2] was half-maximal at 734 nM (AC50). In experiment [2] (monkey NPR1 CHO-K1 cells), the “Monkey NPR1 Amax (% of ANP)” value is given as 101.929 % of ANP.
The corresponding values for `CC[C@H]([C@H]1CC[C@H](C(=O)O)CC1)N(C)c1nc2c(c(N[C@@H](CN3C4CCCC3CC4)c3cnn(C)c3)n1)C[C@H](c1ccccc1)CC2` [Compound 103, (1R,4r)-4-((1R)-1-(((6R)-4-(((1R)-2-(8-azabicyclo[3.2.1]octan-8-yl)-1-(1-methyl-1H-pyrazol-4-yl)ethyl)amino)-6-phenyl-5,6,7,8-tetrahydroquinazolin-2-yl)(methyl)amino)propyl)cyclohexane-1-carboxylic acid] are 393 nM, 101.239 % of ANP, 350 nM and 106.030 % of ANP.
With `CC[C@H]([C@H]1CC[C@H](C(=O)O)CC1)N(C)c1nc2c(c(N[C@@H](CN3CCC[C@H](CO)C3)c3cnn(C)c3)n1)C[C@H](c1ccccc1)CC2` [Compound 93, (1R,4r)-4-((R)-1-(((R)-4-(((R)-2-((S)-3-(hydroxymethyl)piperidin-1-yl)-1-(1-methyl-1H-pyrazol-4-yl)ethyl)amino)-6-phenyl-5,6,7,8-tetrahydroquinazolin-2-yl)(methyl)amino)propyl)cyclohexane-1-carboxylic acid], the results for the AC50 in experiment [1] and in experiment [2] (setting [3]) were 318 nM and 261 nM, respectively. Further, the “Human NPR1 Amax (% of ANP)” value in experiment [1] is 92.058 % of ANP. For the same molecule, the “Monkey NPR1 Amax (% of ANP)” value in experiment [2] (monkey NPR1 CHO-K1 cells) is reported as 91.105 % of ANP.
The corresponding values for `CC[C@@H](Nc1nc2c(c(N[C@@H](CN3CCC[C@H](C)C3)c3cnn(C)c3)n1)C[C@](C)(c1cccc(F)c1)CC2)[C@H]1CC[C@H](C(=O)O)CC1` [Compound 2, (1R,4r)-4-((R)-1-(((R)-6-(3-fluorophenyl)-6-methyl-4-(((R)-1-(1-methyl-1H-pyrazol-4-yl)-2-((S)-3-methylpiperidin-1-yl)ethyl)amino)-5,6,7,8-tetrahydroquinazolin-2-yl)amino)propyl)cyclohexane-1-carboxylic acid] are 42 nM, 44 nM, 96.935 % of ANP and 103.371 % of ANP.
Taken in the same sequence, the figures for `CC[C@@H](Nc1nc2c(c(N[C@@H](CN3C4CC5CC(C4)CC3C5)c3cnn(C)c3)n1)C[C@H](c1ccccc1)CC2)[C@H]1CC[C@H](C(=O)O)CC1` [Compound 71, (1R,4r)-4-((R)-1-(((R)-4-(((R)-2-((5R,7R)-2-azaadamantan-2-yl)-1-(1-methyl-1H-pyrazol-4-yl)ethyl)amino)-6-phenyl-5,6,7,8-tetrahydroquinazolin-2-yl)amino)propyl)cyclohexane-1-carboxylic acid] were 237 nM, 78 nM, 91.827 % of ANP and 121.791 % of ANP.
`CC[C@H]([C@H]1CC[C@H](C(=O)O)CC1)N(C)c1nc2c(c(N[C@@H](CN3CCC[C@H](C)C3)c3cnn(C)c3)n1)CN(C1CCCCC1)CC2` [Compound 152, (1R,4r)-4-((R)-1-((6-cyclohexyl-4-(((R)-1-(1-methyl-1H-pyrazol-4-yl)-2-((S)-3-methylpiperidin-1-yl)ethyl)amino)-5,6,7,8-tetrahydropyrido[4,3-d]pyrimidin-2-yl)(methyl)amino)propyl)cyclohexane-1-carboxylic acid]: in experiment [1], the half-maximal activity concentration (AC50) turned out to be 1190 nM and the “Human NPR1 Amax (% of ANP)” value was 104.537 % of ANP. Moreover, the AC50 in experiment [2] was 600 nM. For the same molecule, in experiment [2] (monkey NPR1 CHO-K1 cells), the “Monkey NPR1 Amax (% of ANP)” value is 106.260 % of ANP.
For the molecule `CC[C@@H](N(C)c1nc2c(c(N[C@@H](CN3CCC[C@H](C)C3)c3cc(C)nn3C)n1)C[C@H](c1ccccc1)CC2)C12CC(C(=O)O)(C1)C2` [Compound 140, 3-(1-(((R)-4-(((S)-1-(1,3-dimethyl-1H-pyrazol-5-yl)-2-((S)-3-methylpiperidin-1-yl)ethyl)amino)-6-phenyl-5,6,7,8-tetrahydroquinazolin-2-yl)(methyl)amino)-1l3-propyl)bicyclo[1.1.1]pentane-1-carboxylic acid], in experiment [1], the activity was half-maximal at 885 nM (AC50) and the “Human NPR1 Amax (% of ANP)” value is 89.152 % of ANP. Besides, the concentration at half-maximal activity (AC50) in experiment [2] (setting [3]) came out at 499 nM. Moreover, the “Monkey NPR1 Amax (% of ANP)” value in experiment [2] (monkey NPR1 CHO-K1 cells) was 96.883 % of ANP.
As to `CC[C@@H](Nc1nc2c(c(N[C@@H](CN3CCCC[C@@H]3C)c3cnn(C)c3)n1)C[C@H](c1ccccc1)CC2)[C@H]1CC[C@H](C(=O)O)CC1` [Compound 123, (1R,4r)-4-((R)-1-(((R)-4-(((R)-1-(1-methyl-1H-pyrazol-4-yl)-2-((S)-2-methylpiperidin-1-yl)ethyl)amino)-6-phenyl-5,6,7,8-tetrahydroquinazolin-2-yl)amino)propyl)cyclohexane-1-carboxylic acid], in experiment [1], the AC50 was found to be 592 nM and the “Human NPR1 Amax (% of ANP)” value is on record as 103.006 % of ANP. In experiment [2] (setting [3]), the AC50 came out at 377 nM. Moreover, the “Monkey NPR1 Amax (% of ANP)” value in experiment [2] (monkey NPR1 CHO-K1 cells) is on record as 102.761 % of ANP.
Taken in the same sequence, the figures for `CC[C@H]([C@H]1CC[C@H](C(=O)O)CC1)N(C)c1nc2c(c(N[C@@H](CN3CCC(C)CC3)c3cnn(C)c3)n1)C[C@H](c1ccccc1)CC2` [Compound 145, (1R,4r)-4-((R)-1-(methyl((R)-4-(((R)-1-(1-methyl-1H-pyrazol-4-yl)-2-(4-methylpiperidin-1-yl)ethyl)amino)-6-phenyl-5,6,7,8-tetrahydroquinazolin-2-yl)amino)propyl)cyclohexane-1-carboxylic acid] were 1050 nM, 97.636 % of ANP, 900 nM and 103.150 % of ANP.
Taken in the same sequence, the figures for `CC[C@H]([C@H]1CC[C@H](C(=O)O)CC1)N(C)c1nc2c(c(N[C@H](c3cnn(C)c3)C(C)(C)N3CCCCC3)n1)C[C@H](c1ccccc1)CC2` [Compound 173, (1R,4r)-4-((R)-1-(methyl((R)-4-(((R)-2-methyl-1-(1-methyl-1H-pyrazol-4-yl)-2-(piperidin-1-yl)propyl)amino)-6-phenyl-5,6,7,8-tetrahydroquinazolin-2-yl)amino)propyl)cyclohexane-1-carboxylic acid] were 4200 nM, 102.335 % of ANP, 2580 nM and 102.204 % of ANP.

For orientation: AC50 means the concentration giving half of the maximal activity seen.

(Values after patent US12129246B1, “Hydroquinazoline derivatives for the treatment of a disease or disorder” (Novartis AG, priority 2023, dated 2024).)
